# Values joined by “and” are separate entries in the source; they are usually repeats but may differ in a detail not shown here. Identical values can stand only once. Like-named read-outs stand apart in the source and are kept apart here.
# Columns and labels:
# [1] = tested on: P. falciparum Dd2-2D4; assay: P. falciparum asexual blood stage (ABS) growth assay, SYBR Green, 72 h, wild-type parasites; type: cell-based, Plasmodium falciparum; details: for ABS growth dose-response, normalized signal (Replicates 1-3): Dd2-2D4; for EC50: Plasmodium falciparum, DD2, SI Fig 16b, values on -log scale, read-out: ABS - Dd2-2D4 (converted)
# [2] = tested on: halofuginone-induced P. falciparum (elevated proline homeostasis); assay: P. falciparum ABS growth assay, SYBR Green, 72 h, halofuginone-induced parasites; type: cell-based, Plasmodium falciparum
# Description: Parasites were maintained under standard culture conditions as described previously[56],[57]. […] The P. falciparum Dd2 cell lines used in this study (Dd2-2D4, halofuginone-induced, and HFGR-I) have previously undergone whole genome sequencing in our labs. They were also routinely assayed and EC50 values determined using the ABS growth assay (see below) with a panel of standard antimalarial compounds, including halofuginone which has differential activity for the three Dd2 lines used in these experiments. Data were cross-referenced for consistency with literature reported values and data previously acquired in the lab.
# This assay was performed as previously described. In short, P. falciparum erythrocytic-stage parasites at 1% parasitemia and 1% hematocrit in RPMI + 0.5% Albumax were seeded at 40 μL/well in 384-well plates with test compounds in triplicate, dose-response format with 10 μM dihydroartemisinin as a kill-control and blank (no compound) wells as a growth-control. […] After 72 h, growth was quantified by measuring fluorescence (Molecular Devices SpectraMax iD5) following SYBR Green 1 staining. Data were analyzed in Excel and plotted in PRISM (V. 8.4.3–9.1.0, GraphPad).
# [3] = molecular target: T1, PfcProRS (Plasmodium falciparum, UniProt Q8I5R7); type: binding; details: for dose-response signal (normalized), SI Fig 8: single replicates; for Normalized response, dose-response replicates (SI Fig 14): replicates 1-3
# T1 construct: made in house; host or cells: E. coli SoluBL-21
# [4] = molecular target: HsProRS (Homo sapiens, UniProt P07814); assay: TR-FRET ligand displacement assay with tracer MAT379 (CoraFluor-1-Halo and anti-His6 antibody formats); type: binding; set-up: made in house; host or cells: E. coli SoluBL-21; details: for TR-FRET dose-response, normalized signal (SI Fig 11): individual replicates
# Chain of HsProRS (P07814 996-1512): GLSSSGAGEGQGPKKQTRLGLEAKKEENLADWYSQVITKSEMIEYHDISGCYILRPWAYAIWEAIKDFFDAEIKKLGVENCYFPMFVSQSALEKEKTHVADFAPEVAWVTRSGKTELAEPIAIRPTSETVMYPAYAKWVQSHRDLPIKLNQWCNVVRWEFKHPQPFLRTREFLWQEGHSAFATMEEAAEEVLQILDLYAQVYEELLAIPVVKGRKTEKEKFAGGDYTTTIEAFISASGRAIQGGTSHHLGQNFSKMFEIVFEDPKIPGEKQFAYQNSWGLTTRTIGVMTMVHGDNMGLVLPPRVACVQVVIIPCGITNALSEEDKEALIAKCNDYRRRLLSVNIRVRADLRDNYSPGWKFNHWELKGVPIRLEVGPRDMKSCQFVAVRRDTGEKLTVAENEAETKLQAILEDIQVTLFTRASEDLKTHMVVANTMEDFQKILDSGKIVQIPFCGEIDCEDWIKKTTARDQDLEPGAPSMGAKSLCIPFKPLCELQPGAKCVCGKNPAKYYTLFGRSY
# T1 sequence (Q8I5R7 249-746): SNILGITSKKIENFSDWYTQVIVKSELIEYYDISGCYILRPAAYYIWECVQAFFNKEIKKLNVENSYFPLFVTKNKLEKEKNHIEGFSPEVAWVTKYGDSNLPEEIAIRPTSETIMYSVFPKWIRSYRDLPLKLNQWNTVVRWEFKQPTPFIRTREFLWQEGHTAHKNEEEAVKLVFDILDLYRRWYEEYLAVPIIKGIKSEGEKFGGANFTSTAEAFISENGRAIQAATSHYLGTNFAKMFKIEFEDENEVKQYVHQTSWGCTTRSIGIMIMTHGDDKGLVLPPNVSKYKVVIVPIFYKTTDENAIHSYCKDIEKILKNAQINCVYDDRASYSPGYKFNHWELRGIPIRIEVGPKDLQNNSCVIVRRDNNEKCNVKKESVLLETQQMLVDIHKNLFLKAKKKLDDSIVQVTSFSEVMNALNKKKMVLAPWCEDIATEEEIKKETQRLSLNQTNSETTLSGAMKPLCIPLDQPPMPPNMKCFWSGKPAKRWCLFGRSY
compound,measurement,setting,value
O=C(NC1Cc2ccccc2C1)c1nccnc1NC(=O)C1CCC1 [compound 20],"ABS growth dose-response, normalized signal (Replicates 1-3)",[1]; Log[inhibitor] (M) -5.000,1
same,"ABS growth dose-response, normalized signal (Replicates 1-3)",[1]; Log[inhibitor] (M) -5.301,7
same,EC50,[1],3.74 µM
same,"dose-response value, Replicates 1-3 (SI Fig 2e)",[2]; Log[inhibitor] (M) -8.699,102
same,"dose-response value, Replicates 1-3 (SI Fig 2e)",[2]; Log[inhibitor] (M) -9.000,101
same,"dose-response signal (normalized), SI Fig 8",[3]; Log[inhibitor] (M) -5.000,-3.34E-02 and -2.16E-02 and 4.43E-02
same,"dose-response signal (normalized), SI Fig 8",[3]; Log[inhibitor] (M) -5.301,9.72E-02 and 2.14E-03 and 9.57E-02
same,"dose-response signal (normalized), SI Fig 8",[3]; Log[inhibitor] (M) -5.601,1.29E-01 and 1.68E-01 and 1.72E-01
same,"dose-response signal (normalized), SI Fig 8",[3]; Log[inhibitor] (M) -5.904,2.39E-01 and 2.05E-01 and 1.23E-01
same,"dose-response signal (normalized), SI Fig 8",[3]; Log[inhibitor] (M) -6.208,3.45E-01 and 2.90E-01 and 4.22E-01
same,"dose-response signal (normalized), SI Fig 8",[3]; Log[inhibitor] (M) -6.509,6.21E-01 and 6.16E-01 and 6.02E-01
same,"dose-response signal (normalized), SI Fig 8",[3]; Log[inhibitor] (M) -6.796,8.63E-01 and 8.36E-01 and 8.81E-01
same,"dose-response signal (normalized), SI Fig 8",[3]; Log[inhibitor] (M) -7.108,1.04E+00 and 9.78E-01 and 9.41E-01
same,"dose-response signal (normalized), SI Fig 8",[3]; Log[inhibitor] (M) -7.409,1.10E+00 and 1.00E+00 and 1.03E+00
same,"dose-response signal (normalized), SI Fig 8",[3]; Log[inhibitor] (M) -7.710,1.05E+00 and 1.02E+00 (2×)
same,"dose-response signal (normalized), SI Fig 8",[3]; Log[inhibitor] (M) -8.000,1.14E+00 and 1.06E+00 and 1.15E+00
same,"dose-response signal (normalized), SI Fig 8",[3]; Log[inhibitor] (M) -8.301,1.07E+00 and 1.03E+00 and 9.53E-01
same,"dose-response signal (normalized), SI Fig 8",[3]; Log[inhibitor] (M) -8.602,1.04E+00 and 1.07E+00 and 9.70E-01
same,"dose-response signal (normalized), SI Fig 8",[3]; Log[inhibitor] (M) -9.000,1.05E+00 and 1.02E+00 and 1.08E+00
same,"dose-response signal (normalized), SI Fig 8",[3]; Log[inhibitor] (M) -9.301,1.08E+00 and 9.05E-01 and 9.37E-01
same,Kd,"[4]; HsProRS (KD [nM]) mean, no added proline/ATP (-)",738 nM
same,Kd,"[4]; HsProRS - best Kd, SI Fig 16a, values on -log scale",13.2 nM
same,"normalized TR-FRET ligand displacement signal, dose-response replicates (SI Fig 6)",[4]; Log[inhibitor] (M) -5.000,1.86E-01 and 1.74E-01 and 2.39E-01
same,"TR-FRET dose-response, normalized signal (SI Fig 11)",[4]; Log[inhibitor] (M) -5.000,1.04E-01 and 5.16E-02 and 1.08E-01
same,"normalized TR-FRET ligand displacement signal, dose-response replicates (SI Fig 6)",[4]; Log[inhibitor] (M) -5.301,4.97E-01 and 4.61E-01 and 4.31E-01
same,"TR-FRET dose-response, normalized signal (SI Fig 11)",[4]; Log[inhibitor] (M) -5.301,1.41E-01 and 1.42E-01 and 1.77E-01
same,"normalized TR-FRET ligand displacement signal, dose-response replicates (SI Fig 6)",[4]; Log[inhibitor] (M) -5.601,6.11E-01 and 7.58E-01 and 7.79E-01
same,"TR-FRET dose-response, normalized signal (SI Fig 11)",[4]; Log[inhibitor] (M) -5.601,3.04E-01 and 2.78E-01 and 2.50E-01
same,"normalized TR-FRET ligand displacement signal, dose-response replicates (SI Fig 6)",[4]; Log[inhibitor] (M) -5.904,8.89E-01 and 8.92E-01 and 8.45E-01
same,"TR-FRET dose-response, normalized signal (SI Fig 11)",[4]; Log[inhibitor] (M) -5.904,4.25E-01 and 3.97E-01 and 4.79E-01
same,"normalized TR-FRET ligand displacement signal, dose-response replicates (SI Fig 6)",[4]; Log[inhibitor] (M) -6.208,9.16E-01 and 8.68E-01 and 9.52E-01
same,"TR-FRET dose-response, normalized signal (SI Fig 11)",[4]; Log[inhibitor] (M) -6.208,6.09E-01 and 5.97E-01 and 5.95E-01
same,"normalized TR-FRET ligand displacement signal, dose-response replicates (SI Fig 6)",[4]; Log[inhibitor] (M) -6.509,1.03E+00 and 8.94E-01 and 8.53E-01
same,"TR-FRET dose-response, normalized signal (SI Fig 11)",[4]; Log[inhibitor] (M) -6.509,6.97E-01 and 7.43E-01 and 6.91E-01
same,"normalized TR-FRET ligand displacement signal, dose-response replicates (SI Fig 6)",[4]; Log[inhibitor] (M) -6.796,1.03E+00 (2×) and 1.11E+00
same,"TR-FRET dose-response, normalized signal (SI Fig 11)",[4]; Log[inhibitor] (M) -6.796,8.43E-01 and 8.17E-01 and 8.38E-01
same,"normalized TR-FRET ligand displacement signal, dose-response replicates (SI Fig 6)",[4]; Log[inhibitor] (M) -7.108,9.80E-01 and 1.08E+00 and 1.02E+00
same,"TR-FRET dose-response, normalized signal (SI Fig 11)",[4]; Log[inhibitor] (M) -7.108,8.72E-01 and 8.51E-01 and 8.01E-01
same,"normalized TR-FRET ligand displacement signal, dose-response replicates (SI Fig 6)",[4]; Log[inhibitor] (M) -7.409,9.83E-01 and 1.12E+00 and 9.82E-01
same,"TR-FRET dose-response, normalized signal (SI Fig 11)",[4]; Log[inhibitor] (M) -7.409,9.24E-01 and 8.62E-01 and 9.39E-01
same,"normalized TR-FRET ligand displacement signal, dose-response replicates (SI Fig 6)",[4]; Log[inhibitor] (M) -7.710,9.31E-01 and 9.49E-01 and 8.80E-01
same,"TR-FRET dose-response, normalized signal (SI Fig 11)",[4]; Log[inhibitor] (M) -7.710,9.14E-01 and 9.13E-01 and 9.09E-01
same,"normalized TR-FRET ligand displacement signal, dose-response replicates (SI Fig 6)",[4]; Log[inhibitor] (M) -8.000,1.05E+00 and 9.80E-01 and 9.83E-01
same,"TR-FRET dose-response, normalized signal (SI Fig 11)",[4]; Log[inhibitor] (M) -8.000,9.16E-01 and 9.29E-01 and 9.47E-01
same,"normalized TR-FRET ligand displacement signal, dose-response replicates (SI Fig 6)",[4]; Log[inhibitor] (M) -8.301,9.29E-01 and 1.08E+00 and 8.52E-01
same,"TR-FRET dose-response, normalized signal (SI Fig 11)",[4]; Log[inhibitor] (M) -8.301,9.16E-01 and 9.69E-01 and 9.32E-01
same,"normalized TR-FRET ligand displacement signal, dose-response replicates (SI Fig 6)",[4]; Log[inhibitor] (M) -8.602,9.34E-01 and 1.03E+00 and 1.00E+00
same,"TR-FRET dose-response, normalized signal (SI Fig 11)",[4]; Log[inhibitor] (M) -8.602,9.06E-01 and 9.54E-01 and 9.32E-01
same,"normalized TR-FRET ligand displacement signal, dose-response replicates (SI Fig 6)",[4]; Log[inhibitor] (M) -9.000,1.01E+00 and 9.37E-01 and 8.87E-01
same,"TR-FRET dose-response, normalized signal (SI Fig 11)",[4]; Log[inhibitor] (M) -9.000,9.11E-01 and 9.90E-01 and 9.12E-01
same,"normalized TR-FRET ligand displacement signal, dose-response replicates (SI Fig 6)",[4]; Log[inhibitor] (M) -9.301,9.68E-01 and 9.96E-01 and 9.12E-01
same,"TR-FRET dose-response, normalized signal (SI Fig 11)",[4]; Log[inhibitor] (M) -9.301,9.37E-01 and 9.39E-01 and 8.38E-01
O=C(NC1Cc2ccccc2C1)c1nccnc1NS(=O)(=O)C1CCCCC1 [compound 50],EC50,[1],13 µM
same,"Normalized response, dose-response replicates (SI Fig 14)",[3]; Log[inhibitor] (M) -5.000,8.68E-01 and 9.74E-01 and 9.94E-01
same,"Normalized response, dose-response replicates (SI Fig 14)",[3]; Log[inhibitor] (M) -5.301,9.83E-01 and 9.53E-01 and 9.64E-01
same,"Normalized response, dose-response replicates (SI Fig 14)",[3]; Log[inhibitor] (M) -5.601,9.71E-01 and 9.90E-01 and 1.02E+00
same,"Normalized response, dose-response replicates (SI Fig 14)",[3]; Log[inhibitor] (M) -5.904,1.05E+00 and 1.15E+00 and 1.14E+00
same,"Normalized response, dose-response replicates (SI Fig 14)",[3]; Log[inhibitor] (M) -6.208,1.03E+00 and 9.74E-01 and 1.18E+00
same,"Normalized response, dose-response replicates (SI Fig 14)",[3]; Log[inhibitor] (M) -6.509,1.04E+00 and 9.48E-01 and 1.06E+00
same,"Normalized response, dose-response replicates (SI Fig 14)",[3]; Log[inhibitor] (M) -6.796,9.91E-01 and 1.03E+00 and 9.32E-01
same,"Normalized response, dose-response replicates (SI Fig 14)",[3]; Log[inhibitor] (M) -7.108,9.63E-01 and 9.98E-01 and 1.15E+00
same,"Normalized response, dose-response replicates (SI Fig 14)",[3]; Log[inhibitor] (M) -7.409,9.71E-01 and 8.81E-01 and 1.12E+00
same,"Normalized response, dose-response replicates (SI Fig 14)",[3]; Log[inhibitor] (M) -7.710,9.98E-01 and 1.04E+00 and 1.13E+00
same,"Normalized response, dose-response replicates (SI Fig 14)",[3]; Log[inhibitor] (M) -8.000,1.13E+00 and 9.44E-01 and 9.76E-01
same,"Normalized response, dose-response replicates (SI Fig 14)",[3]; Log[inhibitor] (M) -8.301,8.99E-01 and 9.55E-01 and 8.96E-01
same,"Normalized response, dose-response replicates (SI Fig 14)",[3]; Log[inhibitor] (M) -8.602,9.78E-01 and 9.85E-01 and 1.02E+00
same,"Normalized response, dose-response replicates (SI Fig 14)",[3]; Log[inhibitor] (M) -9.000,9.55E-01 (2×) and 1.01E+00
same,"Normalized response, dose-response replicates (SI Fig 14)",[3]; Log[inhibitor] (M) -9.301,9.48E-01 and 9.83E-01 and 9.54E-01
same,IC50,[4],> 10 µM
same,"HsProRS % signal at 10 μM, + 100 μM proline","[4]; + 100 μM proline, 10 μM",84.5%
same,HsProRS % signal at 10 μM,"[4]; no added proline/ATP (-), 10 μM",87.7%
same,IC50,"[4]; read-out: HsProRS IC50 + 100 μM proline, + 100 μM proline",> 10 µM

# Reference: article PMC9403976, “Elucidating the path to Plasmodium prolyl-tRNA synthetase inhibitors that overcome halofuginone resistance” (Nature Communications, 2022)
